Data as given in ChEMBL document CHEMBL4813933, “Discovery of Thanafactin A, a Linear, Proline-Containing Octalipopeptide from Pseudomonas sp. SH-C52, Motivated by Genome Mining” (J Nat Prod, 2021).
Calls of active or inactive are those of the source. No cut-off for these calls is given here.

Assays:
[1] = target: T1, Cathepsin K (Homo sapiens) (UniProt P43235); test: Inhibition of human cathepsin K at 10 uM using Z-Leu-Arg-AMC as substrate incubated for 60 mins by fluorometric assay
T1 sequence (whole entry): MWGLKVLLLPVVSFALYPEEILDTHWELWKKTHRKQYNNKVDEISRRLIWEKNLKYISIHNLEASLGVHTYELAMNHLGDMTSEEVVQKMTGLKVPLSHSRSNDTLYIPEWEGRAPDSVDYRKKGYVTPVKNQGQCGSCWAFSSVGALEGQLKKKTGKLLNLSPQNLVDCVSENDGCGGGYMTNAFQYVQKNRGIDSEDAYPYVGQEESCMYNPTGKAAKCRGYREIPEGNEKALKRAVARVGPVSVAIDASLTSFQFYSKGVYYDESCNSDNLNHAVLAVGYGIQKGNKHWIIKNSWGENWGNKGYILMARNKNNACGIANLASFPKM

Staphylococcus aureus = test: Inhibition of quorum sensing system in Staphylococcus aureus PC322 assessed as reduction in swarming motility at 1 mg/ml measured after 1 hr
[2] = test system: Chromobacterium violaceum; test: Inhibition of quorum sensing system in Chromobacterium violaceum CV026 assessed as reduction in swarming motility at 1 mg/ml measured after 1 hr

inhibition [1]: inactive
inhibition (Staphylococcus aureus): inactive
inhibition [2]: inactive
SMILES: CCCCCCC[C@@H](O)CC(=O)N[C@@H](C(=O)N[C@H](C)C(=O)N[C@H](CCC(N)=O)C(=O)N[C@@H](C)C(=O)N[C@@H](C(=O)N[C@@H](C)C(=O)N1CCC[C@H]1C(=O)N[C@H](C(=O)O)[C@@H](C)O)C(C)C)C(C)C
